Reference: publication PMC10609143, “Inhibitory Mechanisms of Lekethromycin in Dog Liver Cytochrome P450 Enzymes Based on UPLC-MS/MS Cocktail Method” (Molecules, 2023)
Like-named read-outs stand apart in the source and are kept apart here.

Assays:
CYP2A6 [1] = test system: CYP2A6; design: method as in PMID 11307970; conditions: dog liver microsomes, literature; cited from earlier work
CYP2A6 [2] = assay: Enzyme kinetic study of probe substrate in dog liver microsomes; type: in vitro ADME
Protocol: (§4) The CYP450 enzymatic activities were characterized by their probe substrate reactions. […] NADPH was added to initiate the reaction after a 5 min preincubation period at 37 °C in a thermos shaker. Of note, the volume of the final organic solvent in the incubation system should be below <1% (v/v) [21]. All experiments were performed in triplicate.

CYP2D6 = conditions: in vitro drug metabolism studies; cited from earlier work
CYP1A2 = test system: CYP1A2; design: method as in PMID 12433797; conditions: in vitro drug metabolism studies; cited from earlier work
CYP3A4 [3] = conditions: rat; cited from earlier work
[4] = Enzyme kinetic study of probe substrate in dog liver microsomes; type: in vitro ADME; conditions: pH 7.4, probe testosterone (6β-hydroxylation), 15 min, 0.2 mg/mL, n = 3, read-out: Km (Michaelis–Menten constant)
Protocol: (§1) The CYP450 enzymatic activities were characterized by their probe substrate reactions. Incubation mixtures were prepared in a total volume of 200 μL, which consisted of PBS (pH = 7.4), NADPH, probe substrates, and various concentrations of tested compounds. NADPH was added to initiate the reaction after a 5 min preincubation period at 37 °C in a thermos shaker. Of note, the volume of the final organic solvent in the incubation system should be below <1% (v/v). All experiments were performed in triplicate.
(§2) The Vmax and Km were calculated using GraphPad Prism v.8.0.2 (GraphPad software Inc., San Diego, CA, USA) via the Michaelis–Menten kinetic model. In addition, incubation times of 0–60 min were examined for mixed probe substrates. Various DLM protein concentrations (0.05–1 mg/mL) in the incubation mixture were carried out.
(§3) Then, 400 μL of cool ACN containing the 20 μL internal standard was added to terminate the reaction. Samples were vortexed for 2 min and centrifuged at 14,000 rpm for 10 min (4 °C). Next, the supernatant was steamed under nitrogen (40 °C) until dry. Then, it was dissolved with 200 µL of ACN: H2O = 80:20 (v/v). Finally, after filtering with a 0.22 μm membrane, an aliquot of 5 µL was injected into the UPLC-MS/MS for analysis.

CYP3A4 [5] = assay: as above; type: in vitro ADME; conditions: testosterone 6β-hydroxylation, n = 3
Protocol: as §1, §2, §3

CYP3A4 [6] = conditions: dog liver microsomes, literature; cited from earlier work
CYP3A4 [7] = conditions: mini-pig; cited from earlier work
[8] = substrate: CCOc1ccc(NC(C)=O)cc1; assay: cells, lysate or membranes named; conditions: other: phenacetin O-deethylation, dog liver microsomes, 15 min, 0.2 mg/mL, n = 3; pH 7.4
[9] = substrate: COc1ccc2c(c1)[C@]13CCCC[C@@H]1[C@H](C2)N(C)CC3; assay: cells, lysate or membranes named; conditions: other: dextromethorphan O-demethylation, dog liver microsomes, 15 min, 0.2 mg/mL, n = 3; pH 7.4
Protocol: as §4

[10] = substrate: CC(NC(C)(C)C)C(=O)c1cccc(Cl)c1; assay: Enzyme kinetic study of probe substrate in dog liver microsomes; type: in vitro ADME; conditions: other: bupropion hydroxylation, 15 min, 0.2 mg/mL, n = 3, pH 7.4
Protocol: as §4

For `O=c1ccc2ccccc2o1` [CAN, coumarin], the Km (CYP2A6 [1]) is given as 2 to 4.3 µM, the Vmax (CYP2A6 [1]) is given as 1488–1656 pmol/min/mg/microsomal protein and the “Vmax (maximum rate of an enzyme-catalyzed reaction)” value (CYP2A6 [2]; coumarin hydroxylation, n = 3) is given as 0.034 nmol/min/mg protein. For the same molecule, the Km at 15 min (CYP2A6 [2]; pH 7.4, probe coumarin (hydroxylation), 15 min, 0.2 mg/mL, n = 3, read-out: Km (Michaelis–Menten constant)) was 0.41 µM.

For `COc1ccc2c(c1)[C@]13CCCC[C@@H]1[C@H](C2)N(C)CC3` [DEX, dextromethorphan], the Km (CYP2D6) is given as 2 to 10 µM.

In the case of `CCOc1ccc(NC(C)=O)cc1` [PH, phenacetin], the Km (CYP1A2) is listed as 10 to 50 µM.

In the case of `C[C@]12CC[C@H]3[C@@H](CCC4=CC(=O)CC[C@@]43C)[C@@H]1CC[C@@H]2O` [TS, testosterone], the Km (CYP3A4 [3]) is listed as 84 µM, the Km at 15 min [4] is listed as 85.2 µM and the “Vmax (maximum rate of an enzyme-catalyzed reaction)” value (CYP3A4 [5]) is listed as 1.49 nmol/min/mg protein. For the same molecule, the Km (CYP3A4 [6]) was 192 µM, the Vmax (CYP3A4 [6]) was 68–180 pmol/min/mg/microsomal protein and the Km (CYP3A4 [7]) was 79 µM.

B1: CYP1A2 (Canis lupus familiaris) (protein)
chain: MALSQMATGLLLASTIFCLILWVVKAWQPRLPKGLKSPPGPWGWPLLGNVLTLGKSPHLALSRLSQRYGDVLQIRIGSTPVLVLSGLDTIRQALVRQGDDFKGRPDLYSLSLITDSQSMSFSPDSGPVWAAGRRLAQNALNTFSIASDPASSCSCYLEEHVSKEAEALLSRLQEQMAEVGRFDPYNQVLLSVANVIGAMCFGHHFSQRSEEMLPLLMSSSDFVETVSSGNPLDFFPILQYMPNSALQRFKNFNQTFVQSLQKIVQEHYQDFDERSVQDITGALLKHNEKSSRASDGHIPQEKIVNLINDIFGAGFDTVTTAISWSLMYLVANPEIQRQIQKELDTVIGRARQPRLSDRPQLPLMEAFILEIFRHTSFVPFTIPHSTTKDTTLKGFYIPKECCVFINQWQVNHDQQVWGDPFAFRPERFLTADGTTINKTLSEKVMLFGMGKRRCIGEVLAKWEIFLFLAILLQRLEFSVPAGVKVDLTPIYGLTMKHTRCEHVQARPRFSIK
B1 showed a Km [8] of 5.39 µM and a Vmax [8] of 0.00022 µmol/min/mg.

B2: CYP2D6 (Canis lupus familiaris) (protein)
chain: MGLLTGDTLGPLAVAVAIFLLLVDLMHRRRRWATRYPPGPTPVPMVGNLLQMDFQEPICYFSQLQGRFGNVFSLELAWTPVVVLNGLEAVREALVHRSEDTADRPPMPIYDHLGLGPESQGLFLARYGRAWREQRRFSLSTLRNFGLGRKSLEQWVTEEASCLCAAFAEQAGRPFGPGALLNKAVSNVISSLTYGRRFEYDDPRLLQLLELTQQALKQDSGFLREALNSIPVLLHIPGLASKVFSAQKAIITLTNEMIQEHRKTRDPTQPPRHLIDAFVDEIEKAKGNPKTSFNEENLCMVTSDLFIAGMVSTSITLTWALLLMILHPDVQRRVQQEIDEVIGREQLPEMGDQTRMPFTVAVIHEVQRFGDIVPLGVPHMTSRDTEVQGFLIPKGTTLITNLSSVLKDEKVWKKPFRFYPEHFLDAQGHFVKHEAFMPFSAGRRVCLGEPLARMELFLFFTCLLQRFSFSVPAGQPRPSDHGVFTFLKVPAPFQLCVEPR
With B2 the Km [9] was 6.33 µM and the Vmax [9] was 0.00616 µmol/min/mg.

B3: CYP2B6 (Canis lupus familiaris) (protein)
chain: MELSVLLLLALLTGLLLLMARGHPKAYGHLPPGPRPLPILGNFLQMDRKGLLKSFLRLQEKYGDVFTVYLGPRRTVMLCGIDAIREALVDNAEAFSGRGKIAVVEPVFQGYGVVFANGERWKTLRRFSLATMRDFGMGKRSVEERIQEEAQCLVEELRKTEGVLQDPTFFFHSMTANIICSIVFGKRFGYKDPEFLRLMNLFYVSFALISSFSSQMFELFHSFLKYFPGTHRQVYNNLQEIKAFIARMVEKHRETLDPSAPRDFIDAYLIRMDKEKAEPSSEFHHRNLIDTALSLFFAGTETTSTTLRYGFLLMLKYPHIAERIYKEIDQVIGPHRLPSLDDRAKMPYTDAVIHEIQRFGDLLPIGVPHMVTKDICFRGYIIPKGTEVFPILHSALNDPHYFEKPDVFNPDHFLDANGALKKNEAFIPFSIGKRICLGEGIARMELFLFFTTILQNFSVASPMAPEDIDLTPQEIGVGKLPPVYQISFLSRGGC
notes: from tissue; host or cells: dog liver microsomes (DLM)
B3 showed a Km [10] of 9.15 µM and a Vmax [10] of 0.00143 µmol/min/mg.
